Earlier results as cited in patent publication US20080260818A1, “Controlled Absorption of Statins in the Intestine” (DEXCEL PHARMA TECHNOLOGIES LTD., priority 2005, published 2008).

Columns and labels:
[1] = tested on: plasma proteins, primarily albumin; conditions: Simvastatin and its active acid forms
HMG-CoA reductase = target: T1, HMG-CoA reductase (Homo sapiens, UniProt P04035); conditions: considering the beta-hydroxy acid form as the drug
T1 sequence (P04035 1-888): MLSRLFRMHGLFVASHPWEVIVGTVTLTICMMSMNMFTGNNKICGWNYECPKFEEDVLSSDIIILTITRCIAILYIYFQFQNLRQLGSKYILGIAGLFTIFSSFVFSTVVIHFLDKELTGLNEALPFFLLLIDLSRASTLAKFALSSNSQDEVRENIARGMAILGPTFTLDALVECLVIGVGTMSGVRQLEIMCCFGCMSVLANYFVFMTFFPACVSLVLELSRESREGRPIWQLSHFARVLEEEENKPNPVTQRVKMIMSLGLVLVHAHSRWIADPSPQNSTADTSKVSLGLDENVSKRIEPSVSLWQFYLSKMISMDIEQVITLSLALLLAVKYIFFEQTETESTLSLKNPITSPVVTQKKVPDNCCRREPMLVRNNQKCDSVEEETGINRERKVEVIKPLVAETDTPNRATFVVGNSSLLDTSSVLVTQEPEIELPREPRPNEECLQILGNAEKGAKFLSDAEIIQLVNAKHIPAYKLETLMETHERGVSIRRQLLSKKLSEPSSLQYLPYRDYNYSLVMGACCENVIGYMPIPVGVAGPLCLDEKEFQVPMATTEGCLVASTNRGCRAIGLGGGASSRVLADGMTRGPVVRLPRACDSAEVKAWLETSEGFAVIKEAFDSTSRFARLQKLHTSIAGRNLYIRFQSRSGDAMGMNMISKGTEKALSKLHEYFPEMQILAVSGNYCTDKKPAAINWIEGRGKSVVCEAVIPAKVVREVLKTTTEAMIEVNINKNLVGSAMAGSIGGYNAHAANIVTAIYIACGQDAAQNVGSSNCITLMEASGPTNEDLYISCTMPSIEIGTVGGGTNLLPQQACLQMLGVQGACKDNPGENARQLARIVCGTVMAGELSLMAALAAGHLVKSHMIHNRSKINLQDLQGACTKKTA

Row | bound to plasma proteins, primarily to albumin [1] | HMG-CoA reductase activity retained (HMG-CoA reductase) | SMILES
1 | more than 95% |  | CCC(C)(C)C(=O)O[C@H]1C[C@@H](C)C=C2C=C[C@H](C)[C@H](CC[C@@H]3C[C@@H](O)CC(=O)O3)[C@H]21 [simvastatin]
2 |  | ~50% | CCC(C)(C)C(=O)OC1CC(C)(O)C=C2C=CC(C)C(CCC3CC(O)CC(=O)O3)C21 (stereo not drawn) [6-beta-hydroxy simvastatin]
3 |  | approximately 40% | CCC(C)(C)C(=O)OC1CC(CO)C=C2C=CC(C)C(CCC3CC(O)CC(=O)O3)C21 (stereo not drawn) [6-beta-hydroxymethyl]
